Data: patent US20230391826A1, “COMPOSITIONS AND METHODS FOR TREATING DISEASES” (Sanford Burnham Prebys Medical Discovery Institute, priority 2020, published 2023)
≈ marks a conversion by molar mass, not a printed value. Read-outs that look alike come from different tables or passages of the source. Where a SMILES comes first, the peptide text is derived from it. Bridges are numbered along the chain shown (N, C = ends). Roman numbers before positions name the chains, in order. [ ]: non-standard residue; d: D form. βAla = NCCC(=O)O

Columns and labels:
[1] = molecular target: T1, EphA2 extracellular domain fused to Fc (EphA2-Fc) (Homo sapiens, UniProt P29317); test: ELISA: inhibition of ephrinA5-AP binding to immobilized EphA2-Fc
T1 construct: immobilized EphA2 extracellular domain fused to the Fc portion of an antibody (EphA2-Fc)
Text: FIG. 1A-1C illustrates an example of Potency and selectivity of EphA2-targeting dimeric peptides. (FIG. 1A) ELISAs comparing the ability of the peptides to inhibit binding of ephrin-A5 fused to alkaline phosphatase (ephrinA5-AP) to the immobilized EphA2 extracellular domain fused to the Fc portion of an antibody (EphA2-Fc). The graphs show averages ±SD from triplicate measurements from a representative experiment. IC50 values calculated from the fitted curves in each experiment are shown. Averages of IC50 values obtained from multiple experiments are shown in panel FIG. 1B and Table 3. The 10 nM peptide concentration is outlined in red. (FIG. 1B) Plot of the average IC50 values (listed in Table 3) for different ligands. […] (FIG. 1C) EphrinA5-AP binding to EphA receptors and ephrinB2-AP binding to EphB receptors in the presence of dimeric peptides representing each of the three configurations. Values are normalized to ephrin binding without peptide. The graphs show averages and SDs from triplicate measurements (with each measurement shown as a dot).

[2] = Peptide solubility in PBS/H2O/DMSO; assay type: physicochemical
Procedure: Peptide identity and purity are documented by mass spectrometry and high-performance liquid chromatography (HPLC). The peptide solubility values are determined. Concentrated peptide stocks are prepared in DMSO or H2O and stored frozen at −80° C.

EphA2 LBD = molecular target: T2, EphA2 LBD (Homo sapiens, UniProt P29317); test: Isothermal titration calorimetry (ITC) with soluble EphA2 LBD; assay type: binding
T2 construct: made in house; host or cells: E. coli Origami 2(DE3)
Procedure: (FIG. 10A-10E) The EphA2 LBD was titrated at 200-250 μM into 10-12.5 μM of the indicated peptide.
For ITC, all peptides are dissolved in DMSO and both the EphA2 LBD and the peptides are diluted to obtain a final buffer containing 9.5 mM HEPES, pH 7.9, 95 mM NaCl, and 5% DMSO. The experiments are carried out at 296 K (23° C.) using an ITC200 calorimeter (Microcal). Two-microliter aliquots of a peptide solution are injected into the cell containing 205 μL EphA2 LBD. 200-400 μM peptides are titrated into 20-40 μM EphA2 LBD. Experimental data are analyzed using the Origin software package (Microcal). The integrated values for the reaction heats are normalized to the amount of injected peptide after blank subtraction.

EphA2 = EphA2 (Homo sapiens, UniProt P29317); test: EphA2 autophosphorylation on tyrosine 588 in PC3 cells (immunoblot dose-response); assay type: cell-based; set-up: EphA2 is the prevalent endogenously expressed EphA receptor in these cells; endogenous in cells; host or cells: PC3 prostate cancer cells; details: read-out: EC50 PY588
Procedure: (FIG. 2A) Dose-response curves for EphA2 autophosphorylation on tyrosine 588 (pY588; purple) and for downstream inhibition of AKT phosphorylation (magenta). PC3 cells were treated for 15 min with different concentrations of the indicated peptides. […] The graphs show quantifications from multiple blots (averages ±SE; the number of experiments used to generate each curve is shown in Table 3). […] (FIG. 2B) Examples of immunoblots of lysates from PC3 cells treated with the indicated concentrations of representative ligands. […] A white vertical line indicates removal of irrelevant lanes. […] The bars show averages ±SE, and the individual measurements are shown as black dots. […] Plots of Etop versus EC50 for pY588 in FIG. 2D and for pAKT inh in FIG. 2E. Averages ±SE are shown for the peptides and ephrinA1.
To examine the agonistic properties of the different dimeric peptide ligands, EphA2 autophosphorylation on tyrosine 588 (Y588) was measured, which is indicative of receptor activation and mediates binding of SH2 domain-containing proteins that link EphA2 to various downstream signaling pathways (FIG. 7). For these experiments, PC3 prostate cancer cells were stimulated with the dimeric peptides because EphA2 is the prevalent endogenously expressed EphA receptor in these cells, allowing comparisons with ephrins.

[3] = Table 3, inhibition of EphA2-ephrinA5 interaction, averages ± SD, read-out: ICsa (nM) by ELISA
[4] = DMSO, Table 4, third of PBS/H20/DMSO, read-out: Solubility in DMSO
[5] = H2O, Table 4, second of PBS/H20/DMSO, read-out: Solubility in H20
[6] = PBS, Table 4, first of PBS/H20/DMSO, read-out: Solubility in PBS
[7] = DMSO, third of PBS/H2O/DMSO, read-out: Solubility in DMSO
[8] = H2O, second of PBS/H2O/DMSO, read-out: Solubility in H2O
[9] = PBS, first of PBS/H2O/DMSO, read-out: Solubility in PBS

T1 sequence (P29317 24-537 limits assumed): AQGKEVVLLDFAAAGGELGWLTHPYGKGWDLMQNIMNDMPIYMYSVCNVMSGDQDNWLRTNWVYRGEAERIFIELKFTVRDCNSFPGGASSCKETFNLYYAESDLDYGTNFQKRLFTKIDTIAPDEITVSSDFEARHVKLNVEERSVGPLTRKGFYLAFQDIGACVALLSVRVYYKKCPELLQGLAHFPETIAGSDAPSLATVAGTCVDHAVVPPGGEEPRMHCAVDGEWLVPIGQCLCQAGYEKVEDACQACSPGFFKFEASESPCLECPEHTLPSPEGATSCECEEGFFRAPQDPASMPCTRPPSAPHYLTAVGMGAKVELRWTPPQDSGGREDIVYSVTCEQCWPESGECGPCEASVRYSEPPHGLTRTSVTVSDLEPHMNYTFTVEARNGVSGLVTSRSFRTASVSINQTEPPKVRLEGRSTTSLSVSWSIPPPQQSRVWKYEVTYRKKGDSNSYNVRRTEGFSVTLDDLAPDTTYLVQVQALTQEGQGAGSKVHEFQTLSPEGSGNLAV
T2 sequence (P29317 28-200): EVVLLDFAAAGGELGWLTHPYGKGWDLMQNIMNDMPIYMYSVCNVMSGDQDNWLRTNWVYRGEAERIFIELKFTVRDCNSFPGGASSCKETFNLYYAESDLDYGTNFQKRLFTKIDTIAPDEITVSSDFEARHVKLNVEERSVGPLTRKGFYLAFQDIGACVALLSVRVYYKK
Chain of EphA2 (P29317 24-976): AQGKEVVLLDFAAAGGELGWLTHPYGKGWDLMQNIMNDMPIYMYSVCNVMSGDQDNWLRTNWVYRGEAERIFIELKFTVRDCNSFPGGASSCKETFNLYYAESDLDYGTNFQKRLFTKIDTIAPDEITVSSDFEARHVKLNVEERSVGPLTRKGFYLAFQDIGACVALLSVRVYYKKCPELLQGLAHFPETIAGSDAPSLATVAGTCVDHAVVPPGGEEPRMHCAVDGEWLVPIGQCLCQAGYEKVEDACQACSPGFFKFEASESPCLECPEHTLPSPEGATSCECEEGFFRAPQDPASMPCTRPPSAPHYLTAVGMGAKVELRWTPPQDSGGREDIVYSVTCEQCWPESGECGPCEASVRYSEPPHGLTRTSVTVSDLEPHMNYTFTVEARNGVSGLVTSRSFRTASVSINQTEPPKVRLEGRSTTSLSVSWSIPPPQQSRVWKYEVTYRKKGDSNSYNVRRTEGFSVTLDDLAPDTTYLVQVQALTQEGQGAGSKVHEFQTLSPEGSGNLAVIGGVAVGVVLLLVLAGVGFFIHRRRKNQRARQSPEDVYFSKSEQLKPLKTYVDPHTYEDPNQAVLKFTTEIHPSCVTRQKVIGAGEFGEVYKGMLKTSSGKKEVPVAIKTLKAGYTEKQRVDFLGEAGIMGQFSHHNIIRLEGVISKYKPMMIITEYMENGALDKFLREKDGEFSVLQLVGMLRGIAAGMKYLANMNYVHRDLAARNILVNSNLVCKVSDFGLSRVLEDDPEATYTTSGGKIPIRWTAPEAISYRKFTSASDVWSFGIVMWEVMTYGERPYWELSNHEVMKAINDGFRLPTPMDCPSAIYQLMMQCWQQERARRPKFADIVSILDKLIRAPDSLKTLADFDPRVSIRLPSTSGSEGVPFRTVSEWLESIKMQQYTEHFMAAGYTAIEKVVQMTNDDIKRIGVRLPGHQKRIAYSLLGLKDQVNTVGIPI

| SMILES | IC50 [1, 3] | solubility [2, 4] | solubility [2, 5] | solubility [2, 6] | IC50 ([1]; inhibition of ephrin-A5 binding to EphA2, number of experiments in parentheses, read-out: Inc50 (nM) by ELISA) | Kd (EphA2 LBD) | solubility [2, 7] | solubility [2, 8] | solubility [2, 9] | solubility ([2]; water, Table 4, second of PBS/H20/DMSO, read-out: Solubility in H20) | EC50 (EphA2) | ICsa (nM) by ELISA ([1]; Table 3, inhibition of EphA2-ephrinA5 interaction, averages ± SD) | binding to the EphA2 LBD by ITC (EphA2 LBD; high biotin concentration (1 mM)) |
| --- | --- | --- | --- | --- | --- | --- | --- | --- | --- | --- | --- | --- | --- |
| CC(C)C[C@H](NC(=O)[C@H](Cc1c[nH]c2ccccc12)NC(=O)CCN)C(=O)N[C@@H](C)C(=O)N[C@@H](Cc1ccc(O)cc1)C(=O)N1CCC[C@H]1C(=O)N[C@@H](CC(=O)O)C(=O)N[C@@H](CO)C(=O)N[C@H](C(=O)N1CCC[C@H]1C(=O)N[C@@H](Cc1ccc(O)cc1)C(=O)N[C@@H](CCCNC(=N)N)C(=O)N1CCC[C@H]1C(=O)N[C@@H](CCCCN)C(=O)NCCCC[C@H](NC(=O)[C@H](CCCCN)NC(=O)[C@@H]1CCCN1C(=O)[C@H](CCCNC(=N)N)NC(=O)[C@H](Cc1ccc(O)cc1)NC(=O)[C@@H]1CCCN1C(=O)[C@@H](NC(=O)[C@H](CO)NC(=O)[C@H](CC(=O)O)NC(=O)[C@@H]1CCCN1C(=O)[C@H](Cc1ccc(O)cc1)NC(=O)[C@H](C)NC(=O)[C@H](CC(C)C)NC(=O)[C@H](Cc1c[nH]c2ccccc12)NC(=O)CCN)C(C)C)C(=O)O)C(C)C [compound 3] | 0.77 nM | 10 mg/mL (≈ 2910 µM) | 5 mg/mL (≈ 1460 µM) | < 0.1 mg/mL | – | – | – | – | – | – | – | – | – |
| CC(C)C[C@H](NC(=O)[C@H](Cc1c[nH]c2ccccc12)NC(=O)[C@H](C)NC(=O)CNC(=O)[C@@H](N)CSSC[C@H](N)C(=O)NCC(=O)N[C@@H](C)C(=O)N[C@@H](Cc1c[nH]c2ccccc12)C(=O)N[C@@H](CC(C)C)C(=O)N[C@@H](C)C(=O)N[C@@H](Cc1ccc(O)cc1)C(=O)N1CCC[C@H]1C(=O)N[C@@H](CC(=O)O)C(=O)N[C@@H](CO)C(=O)N[C@H](C(=O)N1CCC[C@H]1C(=O)N[C@@H](Cc1ccc(O)cc1)C(=O)N[C@@H](CCCNC(=N)N)C(=O)O)C(C)C)C(=O)N[C@@H](C)C(=O)N[C@@H](Cc1ccc(O)cc1)C(=O)N1CCC[C@H]1C(=O)N[C@@H](CC(=O)O)C(=O)N[C@@H](CO)C(=O)N[C@H](C(=O)N1CCC[C@H]1C(=O)N[C@@H](Cc1ccc(O)cc1)C(=O)N[C@@H](CCCNC(=N)N)C(=O)O)C(C)C [compound 4] (I: H-CGAWLAYPDSVPYR-OH / II: H-CGAWLAYPDSVPYR-OH; disulfide I:1-II:1; C-terminus assumed) | – | 10 mg/mL (≈ 3130 µM) | – | < 0.1 mg/mL | 7.9 ± 1.9 nM | 104 ± 1 nM | 10 mg/mL (≈ 3130 µM) | < 0.1 mg/mL | < 0.1 mg/mL | < 0.1 mg/mL | – | – | – |
| CC(C)C[C@H](NC(=O)[C@H](Cc1c[nH]c2ccccc12)NC(=O)[C@H](C)NC(=O)CNC(=O)[C@@H](N)Cc1cn(CCCC[C@H](N)C(=O)N[C@@H](C)C(=O)N[C@@H](Cc2c[nH]c3ccccc23)C(=O)N[C@@H](CC(C)C)C(=O)N[C@@H](C)C(=O)N[C@@H](Cc2ccc(O)cc2)C(=O)N2CCC[C@H]2C(=O)N[C@@H](CC(=O)O)C(=O)N[C@@H](CO)C(=O)N[C@H](C(=O)N2CCC[C@H]2C(=O)N[C@@H](Cc2ccc(O)cc2)C(=O)N[C@@H](CCCNC(=N)N)C(=O)N2CCC[C@H]2C(=O)N[C@@H](CCCCN)C(N)=O)C(C)C)nn1)C(=O)N[C@@H](C)C(=O)N[C@@H](Cc1ccc(O)cc1)C(=O)N1CCC[C@H]1C(=O)N[C@@H](CC(=O)O)C(=O)N[C@@H](CO)C(=O)N[C@H](C(=O)N1CCC[C@H]1C(=O)N[C@@H](Cc1ccc(O)cc1)C(=O)N[C@@H](CCCNC(=N)N)C(=O)N1CCC[C@H]1C(=O)N[C@@H](CCCCN)C(N)=O)C(C)C [compound 7] | 0.54 nM | – | 5 mg/mL (≈ 1380 µM) | 1 mg/mL (≈ 275 µM) | – | – | 10 mg/mL (≈ 2750 µM) | 5 mg/mL (≈ 1380 µM) | < 0.1 mg/mL | – | 0.22 ± 0.04 nM | – | – |
| CC(C)C[C@H](NC(=O)[C@H](Cc1c[nH]c2ccccc12)NC(=O)CCN)C(=O)N[C@@H](C)C(=O)N[C@@H](Cc1ccc(O)cc1)C(=O)N1CCC[C@H]1C(=O)N[C@@H](CC(=O)O)C(=O)N[C@@H](CO)C(=O)N[C@H](C(=O)N1CCC[C@H]1C(=O)N[C@@H](Cc1ccc(O)cc1)C(=O)N[C@@H](CCCNC(=N)N)C(=O)N1CCC[C@H]1C(=O)N[C@@H](CCCCN)C(=O)NCC(=O)NCC(=O)N[C@@H](C)C(=O)N[C@@H](Cc1c[nH]c2ccccc12)C(=O)N[C@@H](CC(C)C)C(=O)N[C@@H](C)C(=O)N[C@@H](Cc1ccc(O)cc1)C(=O)N1CCC[C@H]1C(=O)N[C@@H](CC(=O)O)C(=O)N[C@@H](CO)C(=O)N[C@H](C(=O)N1CCC[C@H]1C(=O)N[C@@H](Cc1ccc(O)cc1)C(=O)N[C@@H](CCCNC(=N)N)C(=O)N1CCC[C@H]1C(=O)N[C@@H](CCCCN)C(N)=O)C(C)C)C(C)C [compound 8, linear dimer (head-to-tail)] (H-[βAla]WLAYPDSVPYRPKGGAWLAYPDSVPYRPK-NH2; N-terminus assumed) | – | – | 5 mg/mL (≈ 1460 µM) | – | – | – | 10 mg/mL (≈ 2920 µM) | 5 mg/mL (≈ 1460 µM) | 1 mg/mL (≈ 292 µM) | – | – | subnanomolar | – |
| O=C(O)CCCC[C@@H]1SC[C@@H]2NC(=O)N[C@@H]21 [free biotin, biotin, reference compound] | – | – | – | – | – | – | – | – | – | – | – | – | did not detect binding |
